Reference: publication PMC6112376, “Comprehensive Analyses and Prioritization of Tox21 10K Chemicals Affecting Mitochondrial Function by in-Depth Mechanistic Studies” (Environmental Health Perspectives, 2018)
Where a name gives a salt, the structure may show the parent alone. Read-outs that look alike come from different tables or passages of the source.

What was measured:
rat primary hepatocytes [1] = test: MMP assay in rat primary hepatocytes; settings: for IC50: Rattus norvegicus, Hepatocyte, read-out: MMP assays IC50 (µM) Rat Hepatocytes
rat primary hepatocytes [2] = system: rat primary hepatocytes
HepG2 cells [3] = test: cells; settings: Homo sapiens; for IC50: HepG2, read-out: MMP assays IC50 (µM) HepG2; for Emax: HepG2, read-out: MMP assays efficacy (%) HepG2
HepG2 cells [4] = settings: cited from earlier work
[5] = read-out: MMP assays IC50 (µM) qHTS-HepG2
[6] = read-out: MMP assays IC50 (µM), qHTS-HepG2

Structure (SMILES)	IC50 (rat primary hepatocytes [1]) [µM]	MMP assays efficacy (%) Rat Hepatocytes (rat primary hepatocytes [2])	IC50 (HepG2 cells [3]) [µM]	Emax (HepG2 cells [3]) [%]	MMP assays efficacy (%) qHTS-HepG2 (HepG2 cells [4]) [%]	IC50 (HepG2 cells [4]; [5]) [µM]	MMP assays IC50 (µM) Rat Hepatocytes (rat primary hepatocytes [1])	IC50 (HepG2 cells [4]; [6]) [µM]
Nc1ccc2cc3ccccc3cc2c1 [Compound 2-Aminoanthracene]	0.18 ± 0.2	-51±35%	3.55	73	-72±12	4.71 ± 1.92	–	–
O=c1oc2ccccc2c(O)c1C1CCCc2ccccc21 (centres unmarked) [Coumatetralyl]	13.8 ± 8.1	-110±37%	35.5	124	-144±2	13.7 ± 4.84	–	–
CC[C@@]1(O)C[C@H](O[C@H]2C[C@H](N(C)C)[C@H](O[C@H]3C[C@H](O)[C@H](O[C@H]4CCC(=O)[C@H](C)O4)[C@H](C)O3)[C@H](C)O2)c2c(cc3c(c2O)C(=O)c2c(O)cccc2C3=O)[C@H]1C(=O)OC [Aclarubicin hydrochloride]	6.89 ± 9.73	-49±12%	2.45	39	-70±15	3.15 ± 2.82	–	–
N#CC(C#N)=NNc1cccc(Cl)c1 [Carbonyl cyanide chlorophenylhydrazone]	–	inactive	0.25	96	–	0.15 ± 0.04	inactive	–
CC(C)(C)CC(C)(C)c1ccc(O)cc1 [4-(1,1,3,3-Tetramethylbutyl)phenol]	–	inactive	4.89	100	-103±8	4.25 ± 0.92	inactive	–
O=P(OCC(Br)CBr)(OCC(Br)CBr)OCC(Br)CBr (centres unmarked) [Tris(2,3-dibromopropyl) phosphate]	44 ± 10.7	-91±11%	50.1	110	-99±7	–	–	45.8 ± 8.72
Oc1ccc(C2(c3ccc(O)cc3)CCCCC2)cc1 [Bisphenol Z]	14.7 ± 15.1	-34±12%	19.9	113	-101±12	22.2 ± 5.51	–	–
CCOc1ccccc1OCCN[C@H](C)Cc1ccc(OC)c(S(N)(=O)=O)c1 [Tamsulosin hydrochloride]	25.1 ± 8.04	-45±27%	30.8	80	-70±8	–	–	27.2 ± 2.92
Cc1c(N)cccc1N [2,6-Toluenediamine]	32.2 ± 7.36	-44±11%	28.2	85	-72±11	15.7 ± 10	–	–
CN1C(C(=O)Nc2ccccn2)=C(O)c2sccc2S1(=O)=O [Tenoxicam]	4.23 ± 3.79	-65±17%	6.6	69	-83±17	–	–	8.36 ± 1.07
Oc1ccc(Cl)c(Cl)c1 [3,4-Dichlorophenol]	53.9 ± 13	-45±32%	15.8	114	-104±7	9.18 ± 2.63	–	–
Nc1cccc2c(N)cccc12 [1,5-Naphthalenediamine]	–	inactive	3.16	101	-76±19	17 ± 19.6	inactive	–
CC(=O)CC(c1ccccc1)c1c(O)c2ccccc2oc1=O (centres unmarked) [Sodium warfarin]	35.5	-77±32%	35.5	65	-95±22	–	–	38.6 ± 12.8
CCC(C)(c1ccc(O)cc1)c1ccc(O)cc1 [Bisphenol B]	21.8 ± 8.6	-79±17%	10	122	-117±22	10.7 ± 2.48	–	–
CN(C)S(=O)(=O)N(SC(F)(Cl)Cl)c1ccccc1 [Dichlofluanid]	23 ± 29.5	-59±33%	25.1	99	-105±5	5.24 ± 1.99	–	–
COc1ccc(C(=O)c2ccccc2O)c(O)c1 [2,2'-Dihydroxy-4-methoxybenzophenone]	11.1 ± 5.21	-47±18%	5.24	103	-98±6	9.89 ± 1.04	–	–
CC(=O)N1CCN(c2ccc(OCC3COC(Cn4ccnc4)(c4ccc(Cl)cc4Cl)O3)cc2)CC1 (centres unmarked) [Ketoconazole]	–	inactive	5.48	55	-56±14	–	inactive	10.8 ± 3.25
CC(=O)O[C@H]1C[C@H](O[C@H]2[C@@H](O)C[C@H](O[C@H]3[C@@H](O)C[C@H](O[C@H]4CC[C@@]5(C)[C@H](CC[C@@H]6[C@@H]5C[C@@H](O)[C@]5(C)[C@@H](C7=CC(=O)OC7)CC[C@]65O)C4)O[C@@H]3C)O[C@@H]2C)O[C@H](C)[C@H]1O[C@@H]1O[C@H](CO)[C@@H](O)[C@H](O)[C@H]1O [Lanatoside C]	–	inactive	0.31	92	-51±10	–	inactive	0.78 ± 0.14
CCC(C)c1ccccc1O (centres unmarked) [2-(Butan-2-yl)phenol]	–	inactive	25.1	32	-82±8	49.5 ± 9.45	inactive	–
O=[N+]([O-])c1ccc2c3c(cccc13)CC2 [Compound 5-Nitroacenaphthene]	24 ± 16.2	-78±25%	56.2	50	-82±23	34.4 ± 20.4	–	–
C=C(C)CN(CC)c1c([N+](=O)[O-])cc(C(F)(F)F)cc1[N+](=O)[O-] [Ethalfluralin]	–	inactive	44.7	68	-57±4	43.3 ± 17.6	inactive	–
CCN1/C(=C/C=C/C=C/c2sc3ccccc3[n+]2CC)Sc2ccccc21 [Dithiazanine iodide]	0.98 ± 0.16	-59±11%	0.0275	88	-85±6	0.1 ± 0.15	–	–
O=c1[nH]sc2ccccc12 [1,2-Benzisothiazolin-3-one]	–	inactive	17.8	118	-81±19	38.6 ± 13.7	inactive	–
O=[N+]([O-])c1c2ccccc2cc2ccccc12 [Compound 9-Nitroanthracene]	33 ± 4.21	-74±29%	35.5	88	-87±19	21.4 ± 12.8	–	–
C=CC[C@]1(O)CC[C@H]2[C@@H]3CCC4=CCCC[C@@H]4[C@H]3CC[C@@]21C [Allylestrenol]	–	inactive	31.6	97	-52±13	12.8 ± 3.68	inactive	–
